The record followed here is ChEMBL document CHEMBL4837239, “Identification of Thieno[3,2-d]pyrimidine Derivatives as Dual Inhibitors of Focal Adhesion Kinase and FMS-like Tyrosine Kinase 3” (J Med Chem, 2021).

One data set deals with Focal adhesion kinase 1 (Homo sapiens, UniProt Q05397). Put plainly: Inhibition of recombinant FAK (unknown origin) by radiometric kinase assay.
The subject of the next data set is HCT-116. In words: Antiproliferative activity against human HCT-116 cells assessed as growth inhibition measured after 72 hrs by CellTiter-Glo assay. In kind it is functional. For orientation: ATP-based viability assays read luminescence as a measure of living cells.
Another data set has as its system MDA-MB-231. In words: Antiproliferative activity against human MDA-MB-231 cells assessed as growth inhibition measured after 72 hrs by CellTiter-Glo assay. In kind it is functional.
Data set [1] is described as follows: Antiproliferative activity against human A375P cells assessed as growth inhibition measured after 72 hrs by CellTiter-Glo assay. In kind it is functional.
The nature of data set [2]: Metabolic stability in human liver microsomes assessed as compound remaining at 1 uM measured after 1 hr. In kind it is ADME, Microsome. Particulars: read-out: Stabilty.
Data set [3] in a line: Inhibition of FYK Y379 mutant phosphorylation in human MDA-MB-231 cells by in-cell western blot assay. In kind it is cell-based.
The nature of data set [4]: Inhibition of FLT3 D835Y (unknown origin). Also noted: species or system Homo sapiens.
In data set [5] the test system is BaF3. Put plainly: Antiproliferative activity against mouse Ba/F3 cells harbouring FLT3 ITD mutant assessed as growth inhibition measured after 72 hrs by CellTiter-Glo assay. In kind it is functional.
For data set [6], the system named is BaF3. In words: Antiproliferative activity against mouse Ba/F3 cells harbouring FLT3 ITD D835Y mutant assessed as growth inhibition measured after 72 hrs by CellTiter-Glo assay. In kind it is functional.
For data set [7], the system named is BaF3. In words: Antiproliferative activity against mouse Ba/F3 cells harbouring FLT3 D835Y mutant assessed as growth inhibition measured after 72 hrs by CellTiter-Glo assay. In kind it is functional.
Data set [8] relates to BaF3. Put plainly: Antiproliferative activity against mouse Ba/F3 cells harbouring FLT3 ITD F691L mutant assessed as growth inhibition measured after 72 hrs by CellTiter-Glo assay. In kind it is functional.
Data set [9] concerns BaF3. Put plainly: Antiproliferative activity against mouse Ba/F3 cells harbouring FLT3 ITD F691I mutant assessed as growth inhibition measured after 72 hrs by CellTiter-Glo assay. In kind it is functional.
In data set [10] the test system is BaF3. In words: Antiproliferative activity against mouse Ba/F3 cells assessed as growth inhibition measured after 72 hrs by CellTiter-Glo assay. In kind it is functional.

Bounds are passed on as bounds.

Focal adhesion kinase 1, sequence (Q05397 whole entry): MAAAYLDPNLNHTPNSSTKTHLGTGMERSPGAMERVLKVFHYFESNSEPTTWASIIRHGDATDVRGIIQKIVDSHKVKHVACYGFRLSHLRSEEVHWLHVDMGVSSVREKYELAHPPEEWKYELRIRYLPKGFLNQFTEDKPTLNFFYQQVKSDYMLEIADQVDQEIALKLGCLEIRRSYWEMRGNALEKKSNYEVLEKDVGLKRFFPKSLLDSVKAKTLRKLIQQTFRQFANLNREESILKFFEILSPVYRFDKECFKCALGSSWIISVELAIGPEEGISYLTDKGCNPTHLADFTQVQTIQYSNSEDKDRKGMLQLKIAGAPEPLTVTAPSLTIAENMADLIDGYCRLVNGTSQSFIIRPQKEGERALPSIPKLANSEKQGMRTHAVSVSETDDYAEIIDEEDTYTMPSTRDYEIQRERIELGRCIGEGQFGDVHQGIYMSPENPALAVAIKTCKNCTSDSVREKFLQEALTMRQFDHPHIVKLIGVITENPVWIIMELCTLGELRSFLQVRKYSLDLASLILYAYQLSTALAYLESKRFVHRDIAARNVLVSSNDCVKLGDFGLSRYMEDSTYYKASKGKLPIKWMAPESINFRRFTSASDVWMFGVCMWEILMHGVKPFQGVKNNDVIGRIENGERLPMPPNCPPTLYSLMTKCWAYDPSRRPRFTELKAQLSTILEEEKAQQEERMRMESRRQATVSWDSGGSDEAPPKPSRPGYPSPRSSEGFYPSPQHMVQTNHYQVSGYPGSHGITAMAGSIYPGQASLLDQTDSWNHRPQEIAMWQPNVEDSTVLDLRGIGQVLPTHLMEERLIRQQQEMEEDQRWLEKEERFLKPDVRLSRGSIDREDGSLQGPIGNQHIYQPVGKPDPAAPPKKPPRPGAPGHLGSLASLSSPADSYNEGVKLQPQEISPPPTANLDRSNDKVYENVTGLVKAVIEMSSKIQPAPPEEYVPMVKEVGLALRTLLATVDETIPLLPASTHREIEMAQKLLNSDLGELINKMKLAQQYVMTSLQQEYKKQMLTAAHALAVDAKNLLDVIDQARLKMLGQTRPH

In the case of `CS(=O)(=O)Nc1cccc(-c2csc3cnc(Nc4ccc(N5CCOCC5)cc4)nc23)c1`, the IC50 was 8 nM on Focal adhesion kinase 1, 260 nM in [3] and less than 0.5 nM in [4]. The GI50 was determined as 410 nM in the data set on HCT-116; 400 nM with MDA-MB-231; 1570 nM in data set [1]; 9.5 nM with BaF3 [5]; 10.3 nM in the data set with BaF3 [6]; 1.7 nM in the data set with BaF3 [7]. For the same compound, the GI50 turned out to be 104 nM with BaF3 [8], 365 nM with BaF3 [9] and 510 nM in the data set on BaF3 [10]. Moreover, the remaining at 1 h, 1 µM in data set [2] stood at 79.5%.

For orientation: IC50 means the midpoint of a concentration-inhibition curve. Usually GI50 stands for the concentration at which growth is held to half of that of the control.
